Measured values: US20160102052A1, “Use of Cysteamine in Treating Infections caused by Yeasts/Moulds” (priority 2014, published 2016)

System: Exophiala dermatitidis CA01
Test: Broth microdilution chequerboard analysis of Lynovex (NM001) in combination with clinical antifungals
Format: cell-based
Details: 35° C.; for MIC50: Exophiala dermatitidis, NM001 in isolation
Method: The aim of the experiment was to determine the effect of Lynovex (NM001) on the antifungal drug susceptibility of Exophiala dermatitidis CA01. Microtitre plates were prepared following CLSI recommendations for broth microdilution chequerboard method. These plates contained a serial doubling dilution of Lynovex (NM001) combined with serial doubling dilutions of antifungals drugs; Fluconazole, Itraconazole, Caspofungin and Amphotericin B. […] These were incubated at 35° C. and read at 72 h, 96 h, 120 h and 144 h on the BioTek plate reader. […] Three independent E. dermatitidis CA01 cultures were grown on PDA slope for 6 days at 35° C. • 7. Cultures were removed from incubator. 2 ml sterile 0.15M NaCl added to the overnight culture and cells harvested from the surface of the agar. Cells placed in fresh bijou tube. • 8. The cultures were allowed to rest for up to 10 minutes, allowing any hyphae to settle to the bottom. The top layer of conidia was removed into fresh bijou. Hyphae were discarded. • 9. […] This is continued to F12 where 100 μl is removed and discarded. • f. This dilution series was repeated in rows G-H for the remaining 2 cultures • g. Plate read at OD530 on BioTek • h. […] This preparation step occurs in two parts. First, Lynovex (NM001) and antifungals are serially diluted, down and across microtitre plates, respectively. Equal volumes of Lynovex and antifungal are then combined in a fresh microtitre plate, prior to inoculation. […] Stock solutions of Lynovex and antifungals were prepared at 4× desired concentrations. The plate layout at the end of this protocol is the final concentration in the plate following the combination of Lynovex and antifungals and the addition of the inocula. […] All other wells contain 150 μl sterile dH2O. • 9. Serial doubling dilutions are carried out from A to B whereby 150 μl is removed from A and placed into B and mixed well. Then take 150 μl B and place in C and mix well. This is repeated down to row G where the final 150 μl is discarded. […] The same procedure is repeated for the other 4 antifungals, carrying the dilutions across the plate i.e. […] At the final dilution in column 10, the final 150 μl is discarded. […] Inoculating Plates with E. dermatitidis CA01 • 6. Add 100 μl (total volume 200 μl) of the prepared E. dermatitidis CA01 culture to the all wells on the plate except wells H12. […] H12 will contain 100 μl water and 100 μl 2×RPMI-1640 alone, constituting an uninoculated control. • 8. The plate is read in the BioTek at OD530. • 9. Plates are then placed in a plastic box containing a Petri dish of water, sealed and incubated at 35° C. The presence of the water in the dish or on the tissue provides and environment of relatively high humidity. • 10. OD530 is then read at 72 h, 96 h, 120 h and 144 h and raw data processed using Microsoft Excel. • 11. Fractional Inhibitory Concentration (FIC) Index values are generated using MIC100 for 72 h data and MIC50 for later time points using the following formula: […]

NCCS [NM001, cysteamine]
MIC50 (CA01, 72 h, GEOMEAN, Amphotericin B chequerboard, 72 h): 461 µg/mL
MIC50 (CA01, 72 h, GEOMEAN, Caspofungin chequerboard, 72 h): 1250 µg/mL
MIC50 (CA01, 72 h, GEOMEAN, Fluconazole chequerboard, 72 h): 1250 µg/mL
MIC50 (CA01, 72 h, GEOMEAN, Itraconazole chequerboard, 72 h): 1250 µg/mL
MIC50 (CA01, 72 h, MEAN, Amphotericin B chequerboard, 72 h): 667 µg/mL
MIC50 (CA01, 72 h, MEAN, Caspofungin chequerboard, 72 h): 1460 µg/mL
MIC50 (CA01, 72 h, MEAN, Fluconazole chequerboard, 72 h): 1250 µg/mL
MIC50 (CA01, 72 h, MEAN, Itraconazole chequerboard, 72 h): 1510 µg/mL
MIC50 (CA01, 72 h, Range, Amphotericin B chequerboard, 72 h): 125 to 1250 µg/mL
MIC50 (CA01, 72 h, Range, Caspofungin chequerboard, 72 h): 625 to 2500 µg/mL
MIC50 (CA01, 72 h, Range, Fluconazole chequerboard, 72 h): 1250 µg/mL
MIC50 (CA01, 72 h, Range, Itraconazole chequerboard, 72 h): 312 to 2500 µg/mL
MIC50 (CA01, 96 h, GEOMEAN, Amphotericin B chequerboard, 96 h): 625 µg/mL
MIC50 (CA01, 96 h, GEOMEAN, Caspofungin chequerboard, 96 h): 1090 µg/mL
MIC50 (CA01, 96 h, GEOMEAN, Fluconazole chequerboard, 96 h): 787 µg/mL
MIC50 (CA01, 96 h, GEOMEAN, Itraconazole chequerboard, 96 h): 1130 µg/mL
MIC50 (CA01, 96 h, MEAN, Amphotericin B chequerboard, 96 h): 885 µg/mL
MIC50 (CA01, 96 h, MEAN, Caspofungin chequerboard, 96 h): 1530 µg/mL
MIC50 (CA01, 96 h, MEAN, Fluconazole chequerboard, 96 h): 885 µg/mL
MIC50 (CA01, 96 h, MEAN, Itraconazole chequerboard, 96 h): 1520 µg/mL
MIC50 (CA01, 96 h, Range, Amphotericin B chequerboard, 96 h): 156 to 1250 µg/mL
MIC50 (CA01, 96 h, Range, Caspofungin chequerboard, 96 h): 156 to 2500 µg/mL
MIC50 (CA01, 96 h, Range, Fluconazole chequerboard, 96 h): 312 to 1250 µg/mL
MIC50 (CA01, 96 h, Range, Itraconazole chequerboard, 96 h): 312 to 2500 µg/mL
MIC50 (CA01, 120 h, GEOMEAN, Amphotericin B chequerboard, 120 h): 743 µg/mL
MIC50 (CA01, 120 h, GEOMEAN, Caspofungin chequerboard, 120 h): 1440 µg/mL
MIC50 (CA01, 120 h, GEOMEAN, Fluconazole chequerboard, 120 h): 1770 µg/mL
MIC50 (CA01, 120 h, GEOMEAN, Itraconazole chequerboard, 120 h): 1250 µg/mL
MIC50 (CA01, 120 h, MEAN, Amphotericin B chequerboard, 120 h): 977 µg/mL
MIC50 (CA01, 120 h, MEAN, Caspofungin chequerboard, 120 h): 1750 µg/mL
MIC50 (CA01, 120 h, MEAN, Fluconazole chequerboard, 120 h): 1880 µg/mL
MIC50 (CA01, 120 h, MEAN, Itraconazole chequerboard, 120 h): 1500 µg/mL
MIC50 (CA01, 120 h, Range, Amphotericin B chequerboard, 120 h): 156 to 1250 µg/mL
MIC50 (CA01, 120 h, Range, Caspofungin chequerboard, 120 h): 625 to 2500 µg/mL
MIC50 (CA01, 120 h, Range, Fluconazole chequerboard, 120 h): 1250 to 2500 µg/mL
MIC50 (CA01, 120 h, Range, Itraconazole chequerboard, 120 h): 625 to 2500 µg/mL
MIC50 (CA01, 144 h, GEOMEAN, Amphotericin B chequerboard, 144 h): 787 µg/mL
MIC50 (CA01, 144 h, GEOMEAN, Caspofungin chequerboard, 144 h): 1580 µg/mL
MIC50 (CA01, 144 h, GEOMEAN, Fluconazole chequerboard, 144 h): 1490 µg/mL
MIC50 (CA01, 144 h, GEOMEAN, Itraconazole chequerboard, 144 h): 1770 µg/mL
MIC50 (CA01, 144 h, MEAN, Amphotericin B chequerboard, 144 h): 1300 µg/mL
MIC50 (CA01, 144 h, MEAN, Caspofungin chequerboard, 144 h): 1880 µg/mL
MIC50 (CA01, 144 h, MEAN, Fluconazole chequerboard, 144 h): 1720 µg/mL
MIC50 (CA01, 144 h, MEAN, Itraconazole chequerboard, 144 h): 2030 µg/mL
MIC50 (CA01, 144 h, Range, Amphotericin B chequerboard, 144 h): 156 to 2500 µg/mL
MIC50 (CA01, 144 h, Range, Caspofungin chequerboard, 144 h): 625 to 2500 µg/mL
MIC50 (CA01, 144 h, Range, Fluconazole chequerboard, 144 h): 625 to 2500 µg/mL
MIC50 (CA01, 144 h, Range, Itraconazole chequerboard, 144 h): 625 to 2500 µg/mL
NM001 MIC100 in Combination (GEOMEAN, in combination with Amphotericin B, 72 h): 39 µg/mL
NM001 MIC50 in Combination (GEOMEAN, in combination with Amphotericin B, 96 h): 55 µg/mL
NM001 MIC50 in Combination (GEOMEAN, in combination with Amphotericin B, 120 h): 156 µg/mL
NM001 MIC50 in Combination (GEOMEAN, in combination with Amphotericin B, 144 h): 442 µg/mL
NM001 MIC100 in Combination (GEOMEAN, in combination with Caspofungin, 72 h): 78 µg/mL
NM001 MIC50 in Combination (GEOMEAN, in combination with Caspofungin, 96 h): 90 µg/mL
NM001 MIC50 in Combination (GEOMEAN, in combination with Caspofungin, 120 h): 118 µg/mL
NM001 MIC50 in Combination (GEOMEAN, in combination with Caspofungin, 144 h): 394 µg/mL
NM001 MIC100 in Combination (GEOMEAN, in combination with Fluconazole, 72 h): 312.5 µg/mL
NM001 MIC50 in Combination (GEOMEAN, in combination with Fluconazole, 96 h): 139 µg/mL
NM001 MIC50 in Combination (GEOMEAN, in combination with Fluconazole, 120 h): 263 µg/mL
NM001 MIC50 in Combination (GEOMEAN, in combination with Fluconazole, 144 h): 263 µg/mL
NM001 MIC100 in Combination (GEOMEAN, in combination with Itraconazole, 72 h): 179 µg/mL
NM001 MIC50 in Combination (GEOMEAN, in combination with Itraconazole, 96 h): 78 µg/mL
NM001 MIC50 in Combination (GEOMEAN, in combination with Itraconazole, 120 h): 136 µg/mL
NM001 MIC50 in Combination (GEOMEAN, in combination with Itraconazole, 144 h): 197 µg/mL
NM001 MIC100 in Combination (MEAN, in combination with Amphotericin B, 72 h): 39 µg/mL
NM001 MIC50 in Combination (MEAN, in combination with Amphotericin B, 96 h): 59 µg/mL
NM001 MIC50 in Combination (MEAN, in combination with Amphotericin B, 120 h): 221 µg/mL
NM001 MIC50 in Combination (MEAN, in combination with Amphotericin B, 144 h): 469 µg/mL
NM001 MIC100 in Combination (MEAN, in combination with Caspofungin, 72 h): 78 µg/mL
NM001 MIC50 in Combination (MEAN, in combination with Caspofungin, 96 h): 102 µg/mL
NM001 MIC50 in Combination (MEAN, in combination with Caspofungin, 120 h): 148 µg/mL
NM001 MIC50 in Combination (MEAN, in combination with Caspofungin, 144 h): 417 µg/mL
NM001 MIC100 in Combination (MEAN, in combination with Fluconazole, 72 h): 365 µg/mL
NM001 MIC50 in Combination (MEAN, in combination with Fluconazole, 96 h): 176 µg/mL
NM001 MIC50 in Combination (MEAN, in combination with Fluconazole, 120 h): 312.5 µg/mL
NM001 MIC50 in Combination (MEAN, in combination with Fluconazole, 144 h): 400 µg/mL
NM001 MIC100 in Combination (MEAN, in combination with Itraconazole, 72 h): 203 µg/mL
NM001 MIC50 in Combination (MEAN, in combination with Itraconazole, 96 h): 89 µg/mL
NM001 MIC50 in Combination (MEAN, in combination with Itraconazole, 120 h): 156.25 µg/mL
NM001 MIC50 in Combination (MEAN, in combination with Itraconazole, 144 h): 208 µg/mL
NM001 MIC100 in Combination (Range, in combination with Amphotericin B, 72 h): 39 µg/mL
NM001 MIC50 in Combination (Range, in combination with Amphotericin B, 96 h): 39.0625 to 78.125 µg/mL
NM001 MIC50 in Combination (Range, in combination with Amphotericin B, 120 h): 39.06 to 312.5 µg/mL
NM001 MIC50 in Combination (Range, in combination with Amphotericin B, 144 h): 312.5 to 625 µg/mL
NM001 MIC100 in Combination (Range, in combination with Caspofungin, 72 h): 78 µg/mL
NM001 MIC50 in Combination (Range, in combination with Caspofungin, 96 h): 39.0625 to 156.25 µg/mL
NM001 MIC50 in Combination (Range, in combination with Caspofungin, 120 h): 39.06 to 312.5 µg/mL
NM001 MIC50 in Combination (Range, in combination with Caspofungin, 144 h): 312.5 to 625 µg/mL
NM001 MIC100 in Combination (Range, in combination with Fluconazole, 72 h): 156 to 625 µg/mL
NM001 MIC50 in Combination (Range, in combination with Fluconazole, 96 h): 39.06 to 156.25 µg/mL
NM001 MIC50 in Combination (Range, in combination with Fluconazole, 120 h): 156.25 to 625 µg/mL
NM001 MIC50 in Combination (Range, in combination with Fluconazole, 144 h): 39.0625 to 625 µg/mL
NM001 MIC100 in Combination (Range, in combination with Itraconazole, 72 h): 78 to 312.5 µg/mL
NM001 MIC50 in Combination (Range, in combination with Itraconazole, 96 h): 39.06 to 156.25 µg/mL
NM001 MIC50 in Combination (Range, in combination with Itraconazole, 120 h): 78.13 to 312.5 µg/mL
NM001 MIC50 in Combination (Range, in combination with Itraconazole, 144 h): 156.25 to 312.5 µg/mL
